From PubChem BioAssay (NCI)
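Values below derive from 48-hour exposures of cells grown in 96-well plates, with endpoints linearly interpolated between the two concentrations bracketing the appropriate inhibition level. At the GI50, growth is halved. TGI denotes the concentration required for complete inhibition of growth.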

Assays:
Experiment in all cases: NCI-60 cell line screen, 48 h
M14 melanoma = tested on: M14 melanoma
SK-OV-3 ovarian = tested on: SK-OV-3 ovarian
MCF7 breast = tested on: MCF7 breast
UO-31 renal = tested on: UO-31 renal
OVCAR-8 ovarian = tested on: OVCAR-8 ovarian
NCI-H226 lung = tested on: NCI-H226 lung
IGROV1 ovarian = tested on: IGROV1 ovarian
SK-MEL-5 melanoma = tested on: SK-MEL-5 melanoma
KM12 colon = tested on: KM12 colon
NCI-H460 lung = tested on: NCI-H460 lung
SF-268 CNS = tested on: SF-268 CNS
786-0 renal = tested on: 786-0 renal
HS 578T breast = tested on: HS 578T breast
HOP-92 NSCLC = tested on: HOP-92 NSCLC
UACC-62 melanoma = tested on: UACC-62 melanoma
T-47D breast = tested on: T-47D breast
A498 renal = tested on: A498 renal
RXF 393 renal = tested on: RXF 393 renal
HL-60(TB) leukemia = tested on: HL-60(TB) leukemia
CCRF-CEM leukemia = tested on: CCRF-CEM leukemia
SW-620 colon = tested on: SW-620 colon
NCI-H23 lung = tested on: NCI-H23 lung
A549 NSCLC = tested on: A549 NSCLC
OVCAR-5 ovarian = tested on: OVCAR-5 ovarian
OVCAR-4 ovarian = tested on: OVCAR-4 ovarian
TK-10 renal = tested on: TK-10 renal
LOX IMVI melanoma = tested on: LOX IMVI melanoma
MDA-MB-231 breast = tested on: MDA-MB-231 breast
HT29 colon = tested on: HT29 colon
SF-539 CNS = tested on: SF-539 CNS
EKVX NSCLC = tested on: EKVX NSCLC
COLO 205 colon = tested on: COLO 205 colon
NCI-H522 lung = tested on: NCI-H522 lung
MDA-MB-435 = tested on: MDA-MB-435
SR leukemia = tested on: SR leukemia
BT-549 breast = tested on: BT-549 breast
NCI/ADR-RES ovarian = tested on: NCI/ADR-RES ovarian
SNB-19 CNS = tested on: SNB-19 CNS
HOP-62 NSCLC = tested on: HOP-62 NSCLC
K-562 leukemia = tested on: K-562 leukemia
HCT-116 colon = tested on: HCT-116 colon
CAKI-1 renal = tested on: CAKI-1 renal
SN12C renal = tested on: SN12C renal
HCT-15 colon = tested on: HCT-15 colon
MALME-3M melanoma = tested on: MALME-3M melanoma
SK-MEL-2 melanoma = tested on: SK-MEL-2 melanoma
SK-MEL-28 melanoma = tested on: SK-MEL-28 melanoma
SF-295 CNS = tested on: SF-295 CNS
OVCAR-3 ovarian = tested on: OVCAR-3 ovarian
PC-3 prostate = tested on: PC-3 prostate
DU-145 prostate = tested on: DU-145 prostate
MOLT-4 leukemia = tested on: MOLT-4 leukemia
SNB-75 CNS = tested on: SNB-75 CNS
U251 CNS = tested on: U251 CNS
RPMI-8226 leukemia = tested on: RPMI-8226 leukemia
ACHN renal = tested on: ACHN renal
UACC-257 melanoma = tested on: UACC-257 melanoma
HCC-2998 colon = tested on: HCC-2998 colon

`COc1cc2nc(-c3cccs3)oc(=O)c2cc1OC` was tested, and the TGI (M14 melanoma) was over 100 µM, the TGI (SK-OV-3 ovarian) was over 100 µM and the TGI (MCF7 breast) was over 100 µM. For the same compound, the TGI (UO-31 renal) was over 100 µM, the TGI (OVCAR-8 ovarian) was over 100 µM and the TGI (NCI-H226 lung) was over 100 µM. For the same compound, the TGI (IGROV1 ovarian) was over 100 µM, the TGI (SK-MEL-5 melanoma) was over 100 µM and the TGI (KM12 colon) was over 100 µM. It also gave a TGI (NCI-H460 lung) of over 100 µM, a TGI (SF-268 CNS) of over 100 µM and a TGI (786-0 renal) of over 100 µM. For the same compound, the TGI (HS 578T breast) was over 100 µM, the TGI (HOP-92 NSCLC) was over 100 µM and the TGI (UACC-62 melanoma) was over 100 µM. For the same compound, the TGI (T-47D breast) was over 100 µM, the TGI (A498 renal) was over 100 µM and the TGI (RXF 393 renal) was over 100 µM. For the same compound, the TGI (HL-60(TB) leukemia) was over 100 µM, the TGI (CCRF-CEM leukemia) was over 100 µM and the TGI (SW-620 colon) was over 100 µM. For the same compound, the TGI (NCI-H23 lung) was over 100 µM, the TGI (A549 NSCLC) was over 100 µM and the TGI (OVCAR-5 ovarian) was over 100 µM. The TGI (OVCAR-4 ovarian) was over 100 µM, the TGI (TK-10 renal) was over 100 µM and the TGI (LOX IMVI melanoma) was over 100 µM. For the same compound, the TGI (MDA-MB-231 breast) was over 100 µM, the TGI (HT29 colon) was over 100 µM and the TGI (SF-539 CNS) was over 100 µM. The TGI (EKVX NSCLC) was over 100 µM, the TGI (COLO 205 colon) was over 100 µM and the TGI (NCI-H522 lung) was over 100 µM. The TGI (MDA-MB-435) was over 100 µM, the TGI (SR leukemia) was over 100 µM and the TGI (BT-549 breast) was over 100 µM. It also gave a TGI (NCI/ADR-RES ovarian) of over 100 µM, a TGI (SNB-19 CNS) of over 100 µM and a TGI (HOP-62 NSCLC) of 69.1 µM. The TGI (K-562 leukemia) was over 100 µM, the TGI (HCT-116 colon) was over 100 µM and the TGI (CAKI-1 renal) was over 100 µM. The TGI (SN12C renal) was over 100 µM, the TGI (HCT-15 colon) was over 100 µM and the TGI (MALME-3M melanoma) was over 100 µM. For the same compound, the TGI (SK-MEL-2 melanoma) was over 100 µM, the TGI (SK-MEL-28 melanoma) was over 100 µM and the TGI (SF-295 CNS) was over 100 µM. It also gave a TGI (OVCAR-3 ovarian) of over 100 µM, a TGI (PC-3 prostate) of over 100 µM and a TGI (DU-145 prostate) of over 100 µM. For the same compound, the TGI (MOLT-4 leukemia) was over 100 µM, the TGI (SNB-75 CNS) was over 100 µM and the TGI (U251 CNS) was over 100 µM. For the same compound, the TGI (RPMI-8226 leukemia) was over 100 µM, the TGI (ACHN renal) was over 100 µM and the TGI (UACC-257 melanoma) was over 100 µM.
Compound `Cc1ccc(OCCOCCOCCOCCOc2ccc(C)n(O)c2=S)c(=S)n1O` has a GI50 (SK-OV-3 ovarian) of 0.0753 µM, a TGI (SK-OV-3 ovarian) of over 100 µM and a GI50 (MCF7 breast) of under 0.01 µM. It also gave a TGI (MCF7 breast) of 43.6 µM, a GI50 (UO-31 renal) of 0.0177 µM and a TGI (UO-31 renal) of 4.14 µM. It also gave a GI50 (OVCAR-8 ovarian) of under 0.0137 µM, a TGI (OVCAR-8 ovarian) of over 100 µM and a GI50 (NCI-H226 lung) of under 0.0291 µM. The TGI (NCI-H226 lung) was 12.7 µM, the GI50 (IGROV1 ovarian) was under 0.01 µM and the TGI (IGROV1 ovarian) was 54.3 µM. For the same compound, the GI50 (SK-MEL-5 melanoma) was 0.0438 µM, the TGI (SK-MEL-5 melanoma) was 11.3 µM and the GI50 (KM12 colon) was 0.0818 µM. The TGI (KM12 colon) was over 100 µM, the GI50 (NCI-H460 lung) was under 0.01 µM and the TGI (NCI-H460 lung) was 7.28 µM. The GI50 (SF-268 CNS) was 0.0482 µM, the TGI (SF-268 CNS) was over 100 µM and the GI50 (786-0 renal) was 0.335 µM. The TGI (786-0 renal) was over 100 µM, the GI50 (HS 578T breast) was 3.58 µM and the TGI (HS 578T breast) was over 100 µM. It also gave a GI50 (HOP-92 NSCLC) of 4.78 µM, a TGI (HOP-92 NSCLC) of over 90.8 µM and a GI50 (HCC-2998 colon) of 0.25 µM. The TGI (HCC-2998 colon) was over 100 µM, the GI50 (UACC-62 melanoma) was 0.115 µM and the TGI (UACC-62 melanoma) was 40.5 µM. For the same compound, the GI50 (T-47D breast) was under 0.01 µM, the TGI (T-47D breast) was over 100 µM and the GI50 (A498 renal) was 0.323 µM. It also gave a TGI (A498 renal) of 10.9 µM, a GI50 (RXF 393 renal) of 1.55 µM and a TGI (RXF 393 renal) of 22.3 µM. For the same compound, the GI50 (HL-60(TB) leukemia) was 0.11 µM, the TGI (HL-60(TB) leukemia) was 5.95 µM and the GI50 (CCRF-CEM leukemia) was under 0.01 µM. It also gave a TGI (CCRF-CEM leukemia) of over 100 µM, a GI50 (SW-620 colon) of under 0.0127 µM and a TGI (SW-620 colon) of over 100 µM. It also gave a GI50 (NCI-H23 lung) of 0.0166 µM, a TGI (NCI-H23 lung) of over 100 µM and a GI50 (A549 NSCLC) of 0.0449 µM. For the same compound, the TGI (A549 NSCLC) was over 100 µM, the GI50 (OVCAR-5 ovarian) was 0.408 µM and the TGI (OVCAR-5 ovarian) was over 100 µM. For the same compound, the GI50 (OVCAR-4 ovarian) was under 0.0105 µM, the TGI (OVCAR-4 ovarian) was 55 µM and the GI50 (TK-10 renal) was 0.527 µM. For the same compound, the TGI (TK-10 renal) was over 100 µM, the GI50 (LOX IMVI melanoma) was 0.0481 µM and the TGI (LOX IMVI melanoma) was over 69.6 µM. It also gave a GI50 (MDA-MB-231 breast) of 0.114 µM, a TGI (MDA-MB-231 breast) of over 100 µM and a GI50 (HT29 colon) of under 0.01 µM. The TGI (HT29 colon) was over 100 µM, the GI50 (SF-539 CNS) was 0.317 µM and the TGI (SF-539 CNS) was over 100 µM. It also gave a GI50 (EKVX NSCLC) of 0.0213 µM, a TGI (EKVX NSCLC) of over 100 µM and a GI50 (COLO 205 colon) of 0.0484 µM. It also gave a TGI (COLO 205 colon) of over 100 µM, a GI50 (NCI-H522 lung) of 0.0294 µM and a TGI (NCI-H522 lung) of over 79.7 µM. For the same compound, the GI50 (MDA-MB-435) was 0.366 µM, the TGI (MDA-MB-435) was over 100 µM and the GI50 (SR leukemia) was 0.0616 µM. It also gave a TGI (SR leukemia) of over 100 µM, a GI50 (BT-549 breast) of 0.52 µM and a TGI (BT-549 breast) of over 100 µM. The GI50 (NCI/ADR-RES ovarian) was under 0.0158 µM, the TGI (NCI/ADR-RES ovarian) was over 100 µM and the GI50 (SNB-19 CNS) was 0.221 µM. For the same compound, the TGI (SNB-19 CNS) was over 100 µM, the GI50 (HOP-62 NSCLC) was 0.184 µM and the TGI (HOP-62 NSCLC) was over 100 µM. It also gave a GI50 (K-562 leukemia) of under 0.01 µM, a TGI (K-562 leukemia) of over 100 µM and a GI50 (HCT-116 colon) of under 0.01 µM. For the same compound, the TGI (HCT-116 colon) was over 100 µM, the GI50 (CAKI-1 renal) was under 0.0146 µM and the TGI (CAKI-1 renal) was over 100 µM. For the same compound, the GI50 (SN12C renal) was 0.0266 µM, the TGI (SN12C renal) was over 100 µM and the GI50 (HCT-15 colon) was under 0.0104 µM. For the same compound, the TGI (HCT-15 colon) was over 100 µM, the GI50 (MALME-3M melanoma) was 0.0644 µM and the TGI (MALME-3M melanoma) was over 52.7 µM. It also gave a GI50 (SK-MEL-2 melanoma) of 4.86 µM, a TGI (SK-MEL-2 melanoma) of over 100 µM and a GI50 (SK-MEL-28 melanoma) of 0.356 µM. The TGI (SK-MEL-28 melanoma) was over 100 µM, the GI50 (SF-295 CNS) was 0.0261 µM and the TGI (SF-295 CNS) was over 100 µM. It also gave a GI50 (OVCAR-3 ovarian) of under 0.01 µM, a TGI (OVCAR-3 ovarian) of 50.8 µM and a GI50 (PC-3 prostate) of 0.0155 µM. The TGI (PC-3 prostate) was over 100 µM, the GI50 (DU-145 prostate) was 0.184 µM and the TGI (DU-145 prostate) was over 100 µM. The GI50 (MOLT-4 leukemia) was under 0.01 µM, the TGI (MOLT-4 leukemia) was over 100 µM and the GI50 (SNB-75 CNS) was 3.49 µM. It also gave a TGI (SNB-75 CNS) of over 100 µM, a GI50 (U251 CNS) of 0.0632 µM and a TGI (U251 CNS) of over 100 µM. The GI50 (RPMI-8226 leukemia) was 0.0267 µM, the TGI (RPMI-8226 leukemia) was over 64 µM and the GI50 (ACHN renal) was under 0.0147 µM. For the same compound, the TGI (ACHN renal) was over 100 µM, the GI50 (UACC-257 melanoma) was 0.0192 µM and the TGI (UACC-257 melanoma) was over 29.5 µM.
